Literature values in patent US20030134846A1, “Treatment of trypanosoma brucei with farnesyl protein transferase inhibitors” (Schering Corporation, priority 2001, published 2003).

Details: patients treated for second stage infection; can lead to death

For Nc1nc(N)nc(Nc2ccc([As]3SCC(CO)S3)cc2)n1 (stereo not shown) [melarsoprol], which “reactive encephalopathy, occurrence in patients” value is on record?
The value was 5-10%.
